Square brackets hold non-standard residues; d marks the D form. Peptide text beside a SMILES is read from it. * marks the point of attachment. Alaψ(CH2NMeCH2CH2OH) = C[C@@H](CN(C)CCO)N*; Cha = N[C@@H](CC1CCCCC1)C(=O)O; Lauroyl = CCCCCCCCCCCC(=O)*; Decanoyl = CCCCCCCCCC(=O)*; Octanoyl = CCCCCCCC(=O)*; Hexanoyl = CCCCCC(=O)*; Aib = CC(C)(N)C(=O)O; Propionyl = CCC(=O)*; Butyryl = CCCC(=O)*
How the values were obtained:
BxPC-3 cells [1] = experiment: CyQUANT Direct cell proliferation assay, comparative cytotoxicity assay under 'low glucose'; assay type: cell-based, human; conditions: 24 h exposure; for IC50: 'low glucose' RPMI 1640 (no glucose added), 50.8 pM to 1 µM, three independent experiments each in technical duplicate; for AUC, CyQUANT Direct, BxPC-3 / Emax @ 1 µM, CyQUANT Direct, BxPC-3: 'low glucose', three independent experiments in duplicate; for AUC, CyQUANT Direct, BxPC-3: area under viability-concentration curve, baseline y = 0; for Emax @ 1 µM, CyQUANT Direct, BxPC-3: response (percent viability) at highest concentration 1 µM
Text: (§1) Endpoint fluorescence was quantified as described above.

PANC-1 cells [2] = experiment: as above; assay type: cell-based, human; conditions: 24 h exposure; for IC50: 'low glucose' DMEM (no glucose added), 457 pM to 9 µM, three independent experiments each in technical duplicate; for AUC, CyQUANT Direct, PANC-1 / Emax @ 9 µM, CyQUANT Direct, PANC-1: 'low glucose', three independent experiments in duplicate; for AUC, CyQUANT Direct, PANC-1: area under viability-concentration curve, baseline y = 0; for Emax @ 9 µM, CyQUANT Direct, PANC-1: response (percent viability) at highest concentration 9 µM
Text: as §1

BxPC-3 cells [3] = experiment: PrestoBlue cell viability assay, comparative cytotoxicity assay under 'low glucose'; assay type: cell-based, human; conditions: 24 h exposure; for IC50: 'low glucose' RPMI 1640 (no glucose added), 50.8 pM to 1 µM, three independent experiments each in technical duplicate; for AUC, PrestoBlue, BxPC-3 / Emax @ 1 µM, PrestoBlue, BxPC-3: 'low glucose', three independent experiments in duplicate; for AUC, PrestoBlue, BxPC-3: area under viability-concentration curve, baseline y = 0; for Emax @ 1 µM, PrestoBlue, BxPC-3: response (percent viability) at highest concentration 1 µM
Text: as §1

PANC-1 cells [4] = experiment: as above; assay type: cell-based, human; conditions: 24 h exposure; for IC50: 'low glucose' DMEM (no glucose added), 457 pM to 9 µM, three independent experiments each in technical duplicate; for AUC, PrestoBlue, PANC-1 / Emax @ 9 µM, PrestoBlue, PANC-1: 'low glucose', three independent experiments in duplicate; for AUC, PrestoBlue, PANC-1: area under viability-concentration curve, baseline y = 0; for Emax @ 9 µM, PrestoBlue, PANC-1: response (percent viability) at highest concentration 9 µM
Text: as §1

BxPC-3 cells [5] = conditions: 24 h exposure, medium with or without 5 mM glucose, up to 1 µM
Description: (§2) Cells were seeded at a density of 25,000 cells/well (BxPC-3) and 30,000 cells/well (PANC-1) in Nunc MicroWell 96-Well Black Optical-Bottom Plates with Polymer Base (total volume: 100 µL). Cells were first incubated overnight at 37 °C, 5% CO2 to permit adherence, after which the medium in each well was aspirated, briefly washed once with 100 µL/well of PBS (pH 7.4) and replaced with 100 µL of either RPMI 1640 (BxPC-3, #11879020) or DMEM (PANC-1, #11966025) supplemented with or without 5 mM glucose to create the ‘normal glucose’ and ‘low glucose’ media, respectively. This 5 mM glucose concentration was selected to reflect the physiological concentration of glucose in plasma. Each well was then exposed to the peptides in duplicate at a concentration range of 50.8 pM to 1 µM (BxPC-3) or 457 pM to 9 µM (PANC-1) for 24 h (threefold serial dilution in the corresponding ‘normal glucose’ or ‘low glucose’ media, ten steps). Endpoint fluorescence was quantified as described above.
(§3) Blank correction (wells containing medium only) was first performed on the raw fluorescence–concentration data from the plate reader. Cell viability was then calculated as a percentage by normalizing to the fluorescence of the wells containing the lowest drug concentration (50.8 pM for BxPC-3, 457 pM for PANC-1). The resulting data from three independent experiments (each in technical duplicate) was then plotted on GraphPad Prism 9 and analyzed using the built-in ‘[Inhibitor] vs. response—Variable slope (four parameters)’ equation.

PANC-1 cells [6] = conditions: 24 h exposure, medium with or without 5 mM glucose, up to 9 µM
Description: as §2, §3

BxPC-3 cells [7] = experiment: Initial cytotoxicity assay (PrestoBlue and CyQUANT Direct Confirmation Assay), 25 mM glucose; assay type: cell-based, human; conditions: 3-day (72 h) incubation, RPMI-1640 with 25 mM glucose, up to highest concentration tested of 1 µM, both viability assays
Description: The CyQUANT™ Direct Cell Proliferation Assay was subsequently performed by mixing the CyQUANT™ Direct nucleic acid stain, CyQUANT™ Direct background suppressor I, and PBS (pH 7.4) as per the vendor instructions, then adding 100 µL of this mixture into each well. The plate was returned into the incubator for a further 1 h, and the endpoint fluorescence bottom-read at the Ex/Em wavelength of 485/538 nm on the SpectraMax iD3 plate reader. Blank wells (medium only) and two negative controls—(1) cells + medium, (2) cells + medium + 0.3% v/v DMSO (equivalent to 1 µM peptide)—were set up in the plate for each experiment.

Row | Molecule | IC50 (BxPC-3 cells [1]) [nM] | AUC, CyQUANT Direct, BxPC-3 (BxPC-3 cells [1]) | Emax @ 1 µM, CyQUANT Direct, BxPC-3 (BxPC-3 cells [1]) [%] | IC50 (PANC-1 cells [2]) [nM] | AUC, CyQUANT Direct, PANC-1 (PANC-1 cells [2]) | Emax @ 9 µM, CyQUANT Direct, PANC-1 (PANC-1 cells [2]) [%] | IC50 (BxPC-3 cells [3]) [nM] | AUC, PrestoBlue, BxPC-3 (BxPC-3 cells [3]) | Emax @ 1 µM, PrestoBlue, BxPC-3 (BxPC-3 cells [3]) [%] | IC50 (PANC-1 cells [4]) [nM] | AUC, PrestoBlue, PANC-1 (PANC-1 cells [4]) | Emax @ 9 µM, PrestoBlue, PANC-1 (PANC-1 cells [4]) [%] | Cytotoxicity against BxPC-3 under 'low glucose' vs 'normal glucose' (in words) (BxPC-3 cells [5]) | Cytotoxicity against PANC-1 under 'low glucose' vs 'normal glucose' (in words) (PANC-1 cells [6]) | Inhibition of proliferation of BxPC-3 cells (in words) (BxPC-3 cells [7])
1 | CC[C@H](C)[C@H](NC(=O)C(C)(C)NC(=O)C(C)(C)NC(=O)[C@H](CC1CCCCC1)NC(=O)[C@@H]1CCCN1)C(=O)N[C@H](C(=O)NC(C)(C)C(=O)NC(C)(C)C(=O)N[C@@H](C)CN(C)CCO)C(C)C [(12)] (H-P[Cha][Aib][Aib]IV[Aib][Aib]-{Alaψ(CH2NMeCH2CH2OH)}) | > 1000 | 11 ×10^−5 | 115.0 | > 9000 | 92.6 ×10^−5 | 107.0 | > 1000 | 10.2 ×10^−5 | 104.0 | > 9000 | 90.6 ×10^−5 | 101.0 | inactivity | inactivity | –
2 | CCCCCC(=O)N1CCC[C@H]1C(=O)N[C@@H](CC1CCCCC1)C(=O)NC(C)(C)C(=O)NC(C)(C)C(=O)N[C@H](C(=O)N[C@H](C(=O)NC(C)(C)C(=O)NC(C)(C)C(=O)N[C@@H](C)CN(C)CCO)C(C)C)[C@@H](C)CC [(16)] (Hexanoyl-P[Cha][Aib][Aib]IV[Aib][Aib]-{Alaψ(CH2NMeCH2CH2OH)}) | 400 | 5.2 ×10^−5 | 21.0 | 2000 | 42.1 ×10^−5 | 41.0 | 400 | 5.0 ×10^−5 | 7.1 | 500 | 24.3 ×10^−5 | 7.7 | – | – | –
3 | CCCCCCCCCC(=O)N1CCC[C@H]1C(=O)N[C@@H](CC1CCCCC1)C(=O)NC(C)(C)C(=O)NC(C)(C)C(=O)N[C@H](C(=O)N[C@H](C(=O)NC(C)(C)C(=O)NC(C)(C)C(=O)N[C@@H](C)CN(C)CCO)C(C)C)[C@@H](C)CC [(18)] (Decanoyl-P[Cha][Aib][Aib]IV[Aib][Aib]-{Alaψ(CH2NMeCH2CH2OH)}) | 200 | 3.9 ×10^−5 | 30.0 | 2200 | 44.7 ×10^−5 | 41.7 | 200 | 3.3 ×10^−5 | 5.5 | 200 | 22.2 ×10^−5 | 3.3 | – | – | –
4 | trichoderin A [(3)] | 400 | 4.9 ×10^−5 | 19.6 | 1500 | 41.0 ×10^−5 | 28.2 | 400 | 5.4 ×10^−5 | 3.6 | 300 | 21.7 ×10^−5 | 4.7 | – | – | only partially inhibited the proliferation
5 | CCCC(=O)N1CCC[C@H]1C(=O)N[C@@H](CC1CCCCC1)C(=O)NC(C)(C)C(=O)NC(C)(C)C(=O)N[C@H](C(=O)N[C@H](C(=O)NC(C)(C)C(=O)NC(C)(C)C(=O)N[C@@H](C)CN(C)CCO)C(C)C)[C@@H](C)CC [(15)] (Butyryl-P[Cha][Aib][Aib]IV[Aib][Aib]-{Alaψ(CH2NMeCH2CH2OH)}) | 500 | 5.8 ×10^−5 | 33.8 | 4800 | 50.3 ×10^−5 | 53.7 | 500 | 5.8 ×10^−5 | 16.3 | 900 | 33.6 ×10^−5 | 31.0 | – | – | –
6 | CC[C@H](C)[C@H](NC(=O)C(C)(C)NC(=O)C(C)(C)NC(=O)[C@H](CC1CCCCC1)NC(=O)[C@@H]1CCCN1C(C)=O)C(=O)N[C@H](C(=O)NC(C)(C)C(=O)NC(C)(C)C(=O)N[C@@H](C)CN(C)CCO)C(C)C [(13)] (Ac-P[Cha][Aib][Aib]IV[Aib][Aib]-{Alaψ(CH2NMeCH2CH2OH)}) | > 1000 | 11 ×10^−5 | 111.3 | 8500 | 67.8 ×10^−5 | 48.1 | > 1000 | 9.5 ×10^−5 | 94.0 | 6000 | 58.9 ×10^−5 | 34.6 | – | sufficient to induce cytotoxic effects | –
7 | CCCCCCCCCCCC(=O)N1CCC[C@H]1C(=O)N[C@@H](CC1CCCCC1)C(=O)NC(C)(C)C(=O)NC(C)(C)C(=O)N[C@H](C(=O)N[C@H](C(=O)NC(C)(C)C(=O)NC(C)(C)C(=O)N[C@@H](C)CN(C)CCO)C(C)C)[C@@H](C)CC [(19)] (Lauroyl-P[Cha][Aib][Aib]IV[Aib][Aib]-{Alaψ(CH2NMeCH2CH2OH)}) | 100 | 2.6 ×10^−5 | 18.3 | 800 | 38.9 ×10^−5 | 26.4 | 100 | 1.6 ×10^−5 | 4.6 | 200 | 21.4 ×10^−5 | 4.7 | – | – | –
8 | CCCCCCCC(=O)N1CCC[C@H]1C(=O)N[C@@H](CC1CCCCC1)C(=O)NC(C)(C)C(=O)NC(C)(C)C(=O)N[C@H](C(=O)N[C@H](C(=O)NC(C)(C)C(=O)NC(C)(C)C(=O)N[C@@H](C)CN(C)CCO)C(C)C)[C@@H](C)CC [(17)] (Octanoyl-P[Cha][Aib][Aib]IV[Aib][Aib]-{Alaψ(CH2NMeCH2CH2OH)}) | 500 | 5.6 ×10^−5 | 33.5 | 2000 | 43.7 ×10^−5 | 31.6 | 400 | 5.1 ×10^−5 | 20.0 | 600 | 25.5 ×10^−5 | 8.1 | – | – | –
9 | CCC(=O)N1CCC[C@H]1C(=O)N[C@@H](CC1CCCCC1)C(=O)NC(C)(C)C(=O)NC(C)(C)C(=O)N[C@H](C(=O)N[C@H](C(=O)NC(C)(C)C(=O)NC(C)(C)C(=O)N[C@@H](C)CN(C)CCO)C(C)C)[C@@H](C)CC [(14)] (Propionyl-P[Cha][Aib][Aib]IV[Aib][Aib]-{Alaψ(CH2NMeCH2CH2OH)}) | 600 | 6.8 ×10^−5 | 27.3 | 7000 | 51.8 ×10^−5 | 51.5 | 600 | 6.8 ×10^−5 | 25.1 | 1800 | 38.4 ×10^−5 | 31.5 | – | – | –

Reference: article PMC9866366 (Pharmaceutics, 2023)
